Reference: US11696593B2, “Astaxanthin nutritional compositions and uses” (Bioscience Formulators, LLC, priority 2018, dated 2023)

System: subject having diabetes with A1C as high as 13
Experiment: blood A1C level of a diabetic subject, astaxanthin alone and then the daily dose (Example 4)
Type: in vivo, human
Settings: one subject, 12-24 mg of astaxanthin a day
Excerpt: They begin taking softgel capsules of the daily dose of Example 1 and after 6 weeks their blood A1C level is 5.6 with no changes in diet or habits.

SMILES: CC1=C(/C=C/C(C)=C/C=C/C(C)=C/C=C/C=C(C)/C=C/C=C(C)/C=C/C2=C(C)C(=O)C(O)CC2(C)C)C(C)(C)CC(O)C1=O (stereo not drawn) [astaxanthin, 3,3′-dihydroxy-β-carotene-4,4′-dione]
- blood A1C levels: ≤ 13%
